# From PMC6857474, “Differential Effects of the Mitochondria-Active Tetrapeptide SS-31 (D-Arg-dimethylTyr-Lys-Phe-NH2) and Its Peptidase-Targeted Prodrugs in Experimental Acute Kidney Injury” (Frontiers in Pharmacology, 2019)
# Read-outs that look alike come from different tables or passages of the source. Non-standard residues stand in square brackets, D forms with d. Residues, ends and D or L forms follow the SMILES beside them. Dmt = Cc1cc(O)cc(C)c1C[C@H](N)C(=O)O
# Key:
# aminopeptidase A (APA) [1] = molecular target: T1, aminopeptidase A (APA) (Rattus norvegicus, UniProt P50123); experiment: APA enzymatic activity in intact living EC219 cells (α-Glu-AMC substrate); format: cell-based
# T1 construct: These cells express high levels of APA and γ-GT activities and can be used to measure kinetics in living cells; endogenous in cells; host or cells: EC219 rat brain-derived endothelial cells
# T1 sequence (P50123 whole entry): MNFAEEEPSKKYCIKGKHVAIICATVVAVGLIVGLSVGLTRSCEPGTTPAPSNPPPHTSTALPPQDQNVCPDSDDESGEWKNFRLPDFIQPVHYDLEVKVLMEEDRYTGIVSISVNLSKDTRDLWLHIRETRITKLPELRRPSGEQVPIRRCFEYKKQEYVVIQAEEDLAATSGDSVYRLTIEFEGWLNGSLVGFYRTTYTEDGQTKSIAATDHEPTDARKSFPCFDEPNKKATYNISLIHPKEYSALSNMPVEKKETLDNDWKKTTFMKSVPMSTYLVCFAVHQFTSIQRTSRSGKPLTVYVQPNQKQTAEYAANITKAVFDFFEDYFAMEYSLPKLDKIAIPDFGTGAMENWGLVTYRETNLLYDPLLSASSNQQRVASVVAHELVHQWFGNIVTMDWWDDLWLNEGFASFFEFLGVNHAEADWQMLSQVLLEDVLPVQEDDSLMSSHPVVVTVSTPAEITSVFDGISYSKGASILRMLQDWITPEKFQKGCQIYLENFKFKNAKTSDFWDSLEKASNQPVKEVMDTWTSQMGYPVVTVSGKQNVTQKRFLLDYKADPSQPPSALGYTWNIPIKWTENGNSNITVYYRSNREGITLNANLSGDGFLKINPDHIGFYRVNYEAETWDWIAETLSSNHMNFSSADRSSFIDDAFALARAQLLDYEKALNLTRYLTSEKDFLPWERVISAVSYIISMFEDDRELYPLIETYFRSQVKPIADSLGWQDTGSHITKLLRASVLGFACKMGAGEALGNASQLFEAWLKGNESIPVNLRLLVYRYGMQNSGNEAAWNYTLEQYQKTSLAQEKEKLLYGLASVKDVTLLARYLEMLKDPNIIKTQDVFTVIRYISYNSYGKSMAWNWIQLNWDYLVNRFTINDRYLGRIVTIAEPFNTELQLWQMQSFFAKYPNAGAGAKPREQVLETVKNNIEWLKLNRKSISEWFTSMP
# Protocol: The preparation and characterization of rat brain-derived EC219 endothelial cells were previously described ([Juillerat-Jeanneret et al., 1992]). These cells express high levels of APA and γ-GT activities and can be used to measure kinetics in living cells as APA and γ-GT-positive representative cell models. The cells were grown in Dulbecco’s modified Eagle medium (DMEM) containing 1 g/L glucose, 10% heat-inactivated fetal calf serum (FCS), and antibiotics on uncoated cell culture plastic plates and flasks. MDCK and LLCPK cells were obtained from the American Tissue Culture Collection (ATCC, Manassas, VA, USA) and were grown in DMEM containing 4.5 g/L glucose, 10% FCS, and antibiotics. mCCD, and mDCT cells were a kind gift from O. Bonny (UNIL, Lausanne, Switzerland) and were cultured in DMEM (Ham’s F12 1:1 vol/vol, 60 nM sodium selenate, 5 μg/ml transferrin, 50 nM dexamethasone, 1 nM triiodothyronine, 10 ng/ml epidermal growth factor, 5 μg/ml insulin) and 2% FCS. The characteristics of the used cell lines are shown in Supplementary Table S2 .
# Stock solutions of α-Glu-AMC (APA) and γ-Glu-AMC and Gly-Gly (γ-GT) substrates, all from Bachem, were prepared at 10 mM in DMSO. EC219 cells were grown to confluence in 96-well plates (Corning, NY, USA), then the culture medium was removed, and the cell layers washed once with 100 µl PBS and 100 µl of substrates at decreasing concentrations (320–10 µM) of α-Glu-AMC or γ-Glu-AMC and 20 mM Gly-Gly substrates diluted in PBS and increasing concentrations (0–20 µM) of SS-31 analogs were added. The increase in […] was measured at 37°C in a thermostated fluorescence multiwell-plate reader (CytoFluor Series 4000; PerSeptive Biosystems, MA, USA) at λex = 360 nm/λem = 460 nm using the linear portion of the curves. The kinetics values were then graphically determined or according to Wu and colleagues ([Wu et al., 2011]).
# (A) Intact living EC219 cells were exposed to increasing concentrations of either amastatin (left panel) or acivicin (right panel), two well-characterized enzymatic activity inhibitors of APA or γ-GT, respectively. The activities of the enzymes aminopeptidase A (APA) or γ-glutamyltranspeptidase (γ-GT) were determined using 40 µM of the substrates (S), α-Glu-AMC or γ-Glu-AMC, respectively. (B) Intact living EC219 cells were exposed to increasing concentrations [10-320 µM] of the APA α-Glu-AMC substrate, in the presence of increasing concentrations of SS-31 or α-Glu-SS-31, and the increase of free AMC fluorescence was recorded. Data were analyzed graphically. (DMSO 0.2% was present in all samples).
# in vivo = conditions: male, mouse, ip, 30 mg/kg
# Protocol: For PK evaluation, SS-31 was administered i.p. to male mice in suspension (gelatine/saline 7.5%/0.62% in water) using an administration volume of 4 ml/kg. Blood samples were collected in tubes containing EDTA as an anticoagulant, and plasma was separated by centrifugation and stored at −80°C. Liver and kidney samples (∼100 mg aliquots) were homogenized in three volumes of water using Precellys tissue homogenization tubes (precellys.com). Twenty-five microliters of each tissue homogenate was further diluted with 25 µl blank plasma to produce the final tissue homogenate for extraction. Prepared samples were stored at −20°C before analysis.
# All samples were analyzed using protein precipitation followed by LC-MS/MS analysis. Briefly, 50 µl plasma or final tissue homogenate was mixed with 50 µl 0.5 M HClO4/acetonitrile 9/1 (containing 200 ng/ml bosentan as an internal standard). Samples were stirred and 300 µl water was added, followed by centrifugation at 5600 rpm (4°C, 10 min). Ten microliters of supernatant was analyzed by LC/MS. Calibration standards in plasma were prepared the same way. The LC columns and conditions used were as follows: Phenomenex, Polar RP, 4 µm, and 50 × 2.1 mm at 0.4-ml/min flow rate with a 3-min gradient from 95% solvent A to 95% solvent B (solvent A: water/acetonitrile/HCOOH, 90:10:0.1 with 10 mM NH4 formate; solvent B: water/ACN/HCOOH, 10:90:0.1 with 10 mM NH4 formate). Mass spectrometric conditions were as follows: Thermo TSQ Vantage with positive heated electrospray ionization in MS/MS mode. Mass transitions of the compounds were m/z 320.7 to 119.9. Relative concentrations of the drug and metabolites were established by the percentage of peak area ratio compared to time zero spiked compounds. PK parameters for all studies were calculated using Phoenix WinNonlin Software.
# [2] = Stability in mouse plasma at 37°C; format: in vitro ADME; conditions: for Stability [% of T0] / Release of SS-31 from α-Glu-SS-31: 1 μM; for remaining at 0.5 h, 1 µM / remaining at 1 h, 1 µM / remaining at 3 h, 1 µM / remaining at 5 h, 1 µM: heparinized mouse plasma, read-out: Stability [% of T0]
# Protocol: Finally, we determined if α-Glu functionalization of SS-31 would improve the plasma stability of the compound. SS-31 or α-Glu-SS-31 (at 1 µM concentration) was added to heparinized mouse plasma, and the aliquots were incubated at 37°C for various time points before analysis ( Table 2 ). After a rapid decrease of α-Glu-SS-31 concentration, associated with the appearance of free SS-31, in mouse plasma, the concentration of both compounds remained stable for up to 5 h, whereas SS-31 concentration decreased regularly during the same period of time.
# aminopeptidase A (APA) [3] = molecular target: T2, aminopeptidase A (APA) (Mus musculus, UniProt P16406); experiment: Histoenzymography of APA activity on frozen kidney sections of ADR-treated mice; format: biochemical; conditions: kidney sections of ADR-exposed mice, α-Glu-βNA substrate, 37°C
# T2 construct: from tissue; host or cells: frozen kidney sections of ADR-treated BALB/c male mice
# T2 sequence (P16406 1-945): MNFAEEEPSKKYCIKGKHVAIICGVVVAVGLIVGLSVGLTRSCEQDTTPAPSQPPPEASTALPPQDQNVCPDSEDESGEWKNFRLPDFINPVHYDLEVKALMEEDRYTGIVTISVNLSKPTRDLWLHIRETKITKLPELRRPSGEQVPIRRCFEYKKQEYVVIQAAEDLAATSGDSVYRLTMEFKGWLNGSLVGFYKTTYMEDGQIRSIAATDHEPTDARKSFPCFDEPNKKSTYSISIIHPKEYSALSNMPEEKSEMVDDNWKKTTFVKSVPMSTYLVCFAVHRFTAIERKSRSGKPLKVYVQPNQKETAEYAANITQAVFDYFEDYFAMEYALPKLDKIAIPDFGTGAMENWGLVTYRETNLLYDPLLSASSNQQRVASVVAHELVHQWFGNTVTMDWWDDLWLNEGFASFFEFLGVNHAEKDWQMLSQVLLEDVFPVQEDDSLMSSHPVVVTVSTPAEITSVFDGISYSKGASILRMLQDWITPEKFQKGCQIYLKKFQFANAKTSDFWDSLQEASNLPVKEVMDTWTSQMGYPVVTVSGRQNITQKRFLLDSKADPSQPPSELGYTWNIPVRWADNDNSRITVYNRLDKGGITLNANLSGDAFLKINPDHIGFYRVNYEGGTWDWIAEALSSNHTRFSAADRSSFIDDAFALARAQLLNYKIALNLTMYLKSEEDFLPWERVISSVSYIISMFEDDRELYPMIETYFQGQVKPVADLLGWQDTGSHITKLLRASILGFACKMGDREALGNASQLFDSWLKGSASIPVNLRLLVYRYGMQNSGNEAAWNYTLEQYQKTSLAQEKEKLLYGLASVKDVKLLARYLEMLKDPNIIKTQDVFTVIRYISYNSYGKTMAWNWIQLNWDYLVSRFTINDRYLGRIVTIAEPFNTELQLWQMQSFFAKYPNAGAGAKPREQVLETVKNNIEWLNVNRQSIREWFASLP
# Protocol: Enzymatic activities were evaluated by histoenzymography on OCT-embedded frozen kidneys sections (7 µm), as previously described ([Juillerat-Jeanneret et al., 1992]; [Juillerat-Jeanneret et al., 2000]; [Juillerat-Jeanneret et al., 2003]). Briefly, slides were fixed for 5 min in cold (−20°C) acetone, air dried at room temperature, rehydrated for 5 min in 0.9% NaCl, and exposed to the α-Glu-4-methoxy-β-naphtylamide (APA; Bachem) or γ-Glu-4-methoxy-β-naphtylamide (γ-GT; Serva) substrates and Fast Blue B (Sigma-Aldrich) at 37°C for 15 to 60 min until a red coloration was visible. The slides were washed in distilled water, counterstained with hematoxylin (Mayer) for 1 min, rinsed under tap water and then with Scott solution for 1 min, and mounted in Aquamount (Immu-mount; Thermo Shandon, Pittsburgh, PA, USA) and analyzed with a Nikon Eclipse E800 microscope and digital DXM1200 camera using ACT-1 software.
# Sequential sections (7 µm) of frozen OCT-embedded kidneys of adriamycin (ADR)-treated mice were exposed at 37°C to β-methoxynaphthylamide (β-NA) specific substrates of aminopeptidase A (α-Glu-βNA, upper panels) or γ-glutamyltranspeptidase (γ-Glu-βNA, lower panels) and Fast Blue B, in the absence (none) or the presence of SS-31, α-Glu-SS-31 or γ-Glu-SS-31. The sections were then counterstained with light hematoxylin reagent. The enzymatic activity is visualized as a red precipitate. […]
smiles,measurement,setting,value
CC(C)C[C@@H](N)[C@H](O)C(=O)N[C@H](C(=O)N[C@H](C(=O)N[C@@H](CC(=O)O)C(=O)O)C(C)C)C(C)C [amastatin],IC50,"aminopeptidase A (APA) [1]; intact living EC219 cells, 40 µM α-Glu-AMC, read-out: IC50 APA",< 1 µM
"Cc1cc(O)cc(C)c1C[C@H](NC(=O)[C@H](N)CCCNC(=N)N)C(=O)N[C@@H](CCCCN)C(=O)N[C@@H](Cc1ccccc1)C(N)=O [SS-31, D-Arg-dimethylTyr-Lys-Phe-NH2] (H-[dR][Dmt]KF-NH2)",AUC(0-inf),in vivo; kidney,31300 ng·h/mL
same,AUC(0-t),in vivo; kidney,27800 ng·h/mL
same,Cmax,in vivo; kidney,17200 ng/mL
same,Tmax,in vivo; kidney,1 h
same,half-life,in vivo; kidney,1.1 h
same,level at time molar,in vivo; kidney,~140 nM
same,AUC(0-inf),in vivo; liver,22100 ng·h/mL
same,AUC(0-t),in vivo; liver,20700 ng·h/mL
same,Cmax,in vivo; liver,12700 ng/mL
same,Tmax,in vivo; liver,1 h
same,half-life,in vivo; liver,0.9 h
same,AUC(0-inf),in vivo; plasma,21100 ng·h/mL
same,AUC(0-t),in vivo; plasma,21100 ng·h/mL
same,Cmax,in vivo; plasma,20000 ng/mL
same,Tmax,in vivo; plasma,1 h
same,half-life,in vivo; plasma,0.3 h
same,Stability [% of T0],[2]; time 0 h,100%
same,"remaining at 0.5 h, 1 µM",[2]; time 0.5 h,89.3%
same,"remaining at 1 h, 1 µM",[2]; time 1 h,85.3%
same,"remaining at 3 h, 1 µM",[2]; time 3 h,50.1%
same,"remaining at 5 h, 1 µM",[2]; time 5 h,43%
same,IC50,aminopeptidase A (APA) [1],8.5 ± 3.8 µM
"Cc1cc(O)cc(C)c1C[C@H](NC(=O)[C@@H](CCCNC(=N)N)NC(=O)[C@@H](N)CCC(=O)O)C(=O)N[C@@H](CCCCN)C(=O)N[C@@H](Cc1ccccc1)C(N)=O [α-Glu-SS-31, H-Glu-D-Arg-DMT-Lys-Phe-NH 2 .2TFA] (H-E[dR][Dmt]KF-NH2)",Release of SS-31 from α-Glu-SS-31,[2]; time 0 h,7.5%
same,Stability [% of T0],[2]; time 0 h,100%
same,Release of SS-31 from α-Glu-SS-31,[2]; time 0.5 h,9%
same,Release of SS-31 from α-Glu-SS-31,[2]; time 1 h,9%
same,Release of SS-31 from α-Glu-SS-31,[2]; time 3 h,10%
same,Release of SS-31 from α-Glu-SS-31,[2]; time 5 h,9%
same,"remaining at 0.5 h, 1 µM",[2]; time 0.5 h,68.5%
same,"remaining at 1 h, 1 µM",[2]; time 1 h,68.3%
same,"remaining at 3 h, 1 µM",[2]; time 3 h,66.9%
same,"remaining at 5 h, 1 µM",[2]; time 5 h,65.8%
same,enzymatic activity of APA (histoenzymography),aminopeptidase A (APA) [3],selectively inhibited
same,IC50,aminopeptidase A (APA) [1],13.7 ± 6.7 µM
same,inhibition of APA activity,aminopeptidase A (APA) [1]; intact living EC219 cells,selective inhibition
